The values below come from ChEMBL document CHEMBL1155201, “Structure-activity studies on seco-pancratistatin analogs: potent inhibitors of human cytochrome P450 3A4” (Bioorg Med Chem Lett, 2009).

For orientation: Ki means a dissociation constant, usually derived from enzyme kinetics or from competition with a known ligand.

Data set [1] addresses T1, Cytochrome P450 3A4 (Homo sapiens, UniProt P08684). The experiment in a line: Inhibition of human recombinant CYP3A4 assessed as biotransformation of 7-benzyloxyquinoline to 7-hydroxyquinoline at 10 uM measured every 15 mins by fluorescence intensity analysis. Format: ADME. Conditions: recombinant enzyme, 0.25 h; call rule not given here.
The target of data set [2] is T1, Cytochrome P450 3A4. The experiment in a line: Inhibition of human recombinant CYP3A4 assessed as biotransformation of 7-benzyloxyquinoline to 7-hydroxyquinoline measured every 15 mins by fluorescence intensity analysis. Type of data set: ADME.

T1 sequence (P08684 whole entry): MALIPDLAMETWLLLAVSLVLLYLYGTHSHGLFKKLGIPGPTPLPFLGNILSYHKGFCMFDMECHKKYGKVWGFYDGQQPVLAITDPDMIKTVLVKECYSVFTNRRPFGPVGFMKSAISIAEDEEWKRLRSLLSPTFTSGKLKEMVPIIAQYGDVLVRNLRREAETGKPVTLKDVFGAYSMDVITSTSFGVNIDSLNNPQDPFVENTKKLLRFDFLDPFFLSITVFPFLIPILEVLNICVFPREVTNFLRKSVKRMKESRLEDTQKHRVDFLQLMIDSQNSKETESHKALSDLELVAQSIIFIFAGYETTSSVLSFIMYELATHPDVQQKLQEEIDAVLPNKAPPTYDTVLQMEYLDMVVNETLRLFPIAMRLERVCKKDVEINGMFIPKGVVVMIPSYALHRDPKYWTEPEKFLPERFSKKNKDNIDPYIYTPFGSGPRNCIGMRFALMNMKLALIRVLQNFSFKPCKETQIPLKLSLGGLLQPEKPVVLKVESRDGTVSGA

For the compound `CC1(C)O[C@@H]([C@H](O)[C@@H](CNC(=O)c2ccccc2)c2ccc3c(c2)OCO3)[C@H](CO)O1`, the “inhibition (INH)” value on Cytochrome P450 3A4 [1] is “Not Active”. For `COCO[C@@H]([C@@H]1OC(C)(C)O[C@H]1CO)[C@@H](CNC(=O)c1ccccc1)c1ccc2c(c1)OCO2`, the Ki on Cytochrome P450 3A4 [2] worked out at 1550 nM. For `CC1(C)O[C@@H]([C@H](O)[C@@H](CNC(=O)c2ccccc2)c2ccc3c(c2)OCO3)[C@H](CO[Si](C)(C)C(C)(C)C)O1`, on Cytochrome P450 3A4 [2], the Ki stood at 170 nM.

As for `COCO[C@@H]([C@@H]1OC(C)(C)O[C@H]1CO[Si](C)(C)C(C)(C)C)[C@@H](CNC(=O)c1ccccc1)c1ccc2c(c1)OCO2`, at Cytochrome P450 3A4 [2], the Ki was found to be 30 nM. For `CC1(C)O[C@@H]([C@H](OC(=O)c2ccccc2)[C@@H](CN=[N+]=[N-])c2ccc3c(c2)OCO3)[C@H](CO[Si](C)(C)C(C)(C)C)O1`, at Cytochrome P450 3A4 [1], the “inhibition (INH)” value is on record as “Not Active”.

Take `COCO[C@@H]([C@@H]1OC(C)(C)O[C@H]1COC(C)=O)[C@@H](CNC(=O)c1ccccc1)c1ccc2c(c1)OCO2`: at Cytochrome P450 3A4 [2], the Ki is 1010 nM. Regarding `COCO[C@@H]([C@@H]1OC(C)(C)O[C@H]1CO[Si](C)(C)C(C)(C)C)[C@@H](CN=[N+]=[N-])c1ccc2c(c1)OCO2`, the “inhibition (INH)” value at Cytochrome P450 3A4 [1] is on record as “Not Active”. Consider `COCO[C@@H]([C@@H]1OC(C)(C)O[C@H]1CO[Si](C)(C)C(C)(C)C)[C@@H](CNC(=O)OC(C)(C)C)c1ccc2c(c1)OCO2`, for which the Ki on Cytochrome P450 3A4 [2] was determined as 320 nM. On the same count and under the same terms, the value for `COCO[C@@H]([C@@H]1OC(C)(C)O[C@H]1COS(=O)(=O)c1ccc(C)cc1)[C@@H](CNC(=O)c1ccccc1)c1ccc2c(c1)OCO2` was 70 nM. For the compound `O=C(NC[C@@H](c1ccc2c(c1)OCO2)[C@@H](O)[C@H](O)[C@@H](O)CO)c1ccccc1`, the “inhibition (INH)” value on Cytochrome P450 3A4 [1] is “Not Active”.

`COCO[C@@H]([C@@H]1OC(C)(C)O[C@H]1CO[Si](c1ccccc1)(c1ccccc1)C(C)(C)C)[C@@H](CNC(=O)c1ccccc1)c1ccc2c(c1)OCO2`: the Ki at Cytochrome P450 3A4 [2] came to 580 nM.
